According to paper PMC5609566, “Elucidation of antimicrobial activity and mechanism of action by N-substituted carbazole derivatives” (Bioorganic & Medicinal Chemistry Letters, 2017):
In brackets after ≈: the same amount, converted by molar mass.

Assays:
S. cerevisiae H^+-ATPase = molecular target: T1, S. cerevisiae H^+-ATPase (Saccharomyces cerevisiae, UniProt P05030); assay: Colorimetric ATPase assay (ATP hydrolysis), S. cerevisiae plasma membranes; assay type: biochemical; conditions: initial hit compounds, Table 1
T1 construct: transformed with the full-length cDNA of the S. cerevisiae plasma membrane H^+-ATPase isoform PMA1; made in house; host or cells: S. cerevisiae RS72
Excerpt: To investigate the H^+-ATPase inhibitory effect of the compounds we isolated plasma membranes containing H^+-ATPase from S. cerevisiae and C. albicans cells.[15] Plasma membranes isolated from pig kidney as well as endoplasmic reticulum membranes from rabbit hind leg muscle were used to counter-screen compounds for activity against mammalian Na^+,K^+-ATPase and Ca^2+-ATPase, respectively. Prior to their use, fungal plasma membrane batches were validated by determining the maximum ATP hydrolysis activity, the pH optimum of the ATPase activity, and the sensitivity to inhibition by orthovanadate. ATPase activity was determined by a colorimetric assay that measures the amount of inorganic phosphate liberated over time, as described in Kjellerup et al., 2017.[15] Table 2, Table 3, Table 4 list the IC50 values obtained by measuring the concentration dependence of the ATPase activity for the fifteen carbazole compounds with each of the four membrane preparations.
Pma1-containing plasma membranes were prepared from S. cerevisiae RS72 yeast cells that had been transformed with the full-length cDNA of the S. cerevisiae plasma membrane H^+-ATPase isoform PMA1 under control of the PMA1 promoter, using the same procedure as described in Kongstad et al., 2014^1. For the preparation of C. albicans membranes, a 100 ml overnight culture grown in YPD (10 g/L yeast extract (BD, Sparks, MD), 20 g/L Bacto peptone (BD), 20 g/L D-(+)-glucose) was transferred to 1 L YPD and grown for a further 7 h at RT with agitation (150 rpm), followed by cell harvesting and subsequent membrane preparation using the same procedure as described in Kongstad et al., 2014^1. […] Rabbit sarcoplasmic reticulum membranes containing Sarco/Endoplasmic Reticulum Ca^2+ ATPase (SERCA) were kindly provided by Dr. Claus E. Olesen and Dr. Jesper V. Møller, Aarhus University and prepared as described in Andersen et al., 1985^2. Pig kidney Na^+,K^+-ATPase was kindly provided by Dr. Natalya Fedosova, Aarhus University and prepared as described in Klodos et al., 2002^3.
The compound libraries were purchased from Enamine Ltd, Ukraine and Chembridge Corp, USA. ATPase activity was determined by measuring the amount of liberated phosphate from ATP hydrolysis. […] Reactions were initiated by the addition of Na-ATP to a final concentration of 2.5 mM (Pma1 and Na^+,K^+-ATPase) or 5 mM (SERCA), followed by 30 minutes incubation at 30 °C. The amount of liberated phosphate was determined colorimetrically after addition of STOP solution (mixture of L-ascorbic acid, ammonium heptamolybdate tetrahydrate, and HCl to give final concentrations of 65 mM, 2.2 mM, and 189 mM, respectively) with 5 minutes incubation at room temperature (RT) followed by addition of arsenite solution (mixture of NaAsO2, sodium citrate dihydrate, and acetic acid to give final concentrations of 3.1 mM, 28 mM, and 141 mM, respectively). Absorption was measured at 860 nm after an additional 30 minutes incubation at RT.

C. albicans (ATCC 90028) = assay: Fungal growth inhibition, library hits; assay type: cell-based
Experimental: (§1) Compound hits from the library screening were evaluated against baker yeast S. cerevisiae and C. albicans (ATCC 90028). The minimum inhibitory concentration (MIC) was defined as the lowest concentration inhibiting visual growth of the microorganism and this was determined in triplicate. Standard errors were typically less than 5%. MICs for synthesized compounds were determined on the following fungal isolates: Saccharomyces cerevisiae (ATCC 9763), Candida albicans (SC5314), Candida krusei (ATCC 6258), Candida glabrata (ATCC 90030), Aspergillus flavus (ATCC MYA-1005) and Aspergillus fumigatus (ATCC 13073), which were purchased from American Type Culture Collection, and C. glabrata strain Cg003, which was kindly provided by Julius Subik, Comenius University in Bratislava, Slovak Republic. Cg003 is a clinical isolate, characterized to be resistant to fluconazole and itraconazole due to overexpression of the multidrug resistance efflux pumps Cdr1p and Cdr2p^5. The fungal growth assay was performed as described in Kjellerup et al., 2017^6.

S. cerevisiae [1] = assay: Fungal growth inhibition, library hits; assay type: cell-based; conditions: Saccharomyces cerevisiae, baker yeast
Experimental: as §1

S. cerevisiae [2] = assay: Extracellular acidification assay; assay type: cell-based; conditions: Saccharomyces cerevisiae, mean ± SEM n = 3
Excerpt: (§2) It was subsequently evaluated whether or not the carbazoles were able to prevent extracellular acidification of the surrounding media by blocking the pumping activity of the H^+-ATPase within fungal cells.[15] […] The H^+-ATPase requires ATP to transport protons out of fungal cells. Consequently, a decrease in intracellular ATP (iATP) levels will indirectly affect H^+-ATPase activity. […] In all cases, iATP levels were […] in C. albicans cells exposed to carbazoles compared to the untreated control. […] This implies that the carbazoles need to pass the fungal membrane to inhibit the H^+-ATPase and 7, 18 and 19 may have reduced membrane permeability.
(§3) The ability of S. cerevisiae and C. albicans to acidify the media upon glucose addition was evaluated using the pH sensor dextran (40,000MW)-fluorescein-isothiocyanate as described in Kjellerup et al., 2017^6. Briefly, the cells was starved overnight in 50 mM KCl, pH 6.7 at 4 °C. The cell suspension (Final OD600 of 0.19) was mixed with 1.3 µg/ml dextran (40,000MW)-fluorescein-isothiocyanate, 1.5 % DMSO containing inhibitors and the assay initiated with the addition of 2 % D-(+)-glucose. The rate of media acidification was calculated based on the slope of the fluorescent drop in the first 12 minutes after glucose addition.

C. albicans = assay: Extracellular acidification assay; assay type: cell-based; conditions: Candida albicans, mean ± SEM n = 3
Excerpt: as §2, §3

C. albicans cells = assay: Intracellular ATP determination; assay type: cell-based; conditions: compound at 20 µM, 30 minutes, mean ± SEM n = 5
Excerpt: as §2
C. albicans cells were transferred to 3 ml of YPD media and grown overnight at 30 °C and 150 rpm. The cells were pelleted at 2000 × g for 2 min. and washed in PBS (Sigma-Aldrich, catalog number 8537) twice before re-suspension to an OD600 of 0.1. Cell suspension (98 µL) and 2 µl compound in DMSO were incubated for 30 minutes at RT. Forty microliters of this suspension was then transferred to a black 96-well plate containing 40 µl BacTiterGlo reagent (Promega, Madison, WI) and the plate was incubated for 15 minutes in the dark at room temperature. Luminescence was read on a SpectraMax X5 (Molecular Devices, Sunnyvale, CA) plate reader with 10 s shake and 0.5 s integration time. A standard curve containing 10, 100 and 1000 nM ATP was prepared for every experiment.

T1 sequence (P05030 whole entry, canonical isoform): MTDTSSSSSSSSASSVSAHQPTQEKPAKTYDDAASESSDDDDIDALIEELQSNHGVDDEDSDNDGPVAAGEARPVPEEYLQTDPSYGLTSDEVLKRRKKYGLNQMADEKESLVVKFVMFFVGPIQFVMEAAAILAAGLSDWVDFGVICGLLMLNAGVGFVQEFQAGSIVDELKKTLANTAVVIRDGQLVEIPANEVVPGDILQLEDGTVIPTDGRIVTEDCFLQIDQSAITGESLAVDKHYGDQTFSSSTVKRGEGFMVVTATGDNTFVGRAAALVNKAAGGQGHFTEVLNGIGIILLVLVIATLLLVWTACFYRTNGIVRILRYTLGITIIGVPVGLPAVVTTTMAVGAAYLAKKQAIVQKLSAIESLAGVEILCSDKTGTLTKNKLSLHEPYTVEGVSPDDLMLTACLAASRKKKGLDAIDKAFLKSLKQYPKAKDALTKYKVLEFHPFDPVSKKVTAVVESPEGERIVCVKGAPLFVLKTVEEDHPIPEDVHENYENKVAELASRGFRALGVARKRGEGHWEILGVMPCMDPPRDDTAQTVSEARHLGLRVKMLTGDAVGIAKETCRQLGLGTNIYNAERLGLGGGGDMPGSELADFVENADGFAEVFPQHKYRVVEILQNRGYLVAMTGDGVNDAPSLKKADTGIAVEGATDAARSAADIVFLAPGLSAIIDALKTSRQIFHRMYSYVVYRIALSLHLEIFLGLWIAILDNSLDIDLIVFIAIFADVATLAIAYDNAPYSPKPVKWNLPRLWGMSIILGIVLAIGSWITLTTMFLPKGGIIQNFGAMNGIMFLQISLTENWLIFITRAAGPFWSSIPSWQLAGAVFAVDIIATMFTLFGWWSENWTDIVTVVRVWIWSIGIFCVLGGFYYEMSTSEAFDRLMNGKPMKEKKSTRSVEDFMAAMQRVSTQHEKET

SMILES	IC50 (S. cerevisiae H^+-ATPase) [µM]	MIC (C. albicans (ATCC 90028); ATCC 90028, library hits) [µM]	MIC (S. cerevisiae [1]) [µM]	MIC (C. albicans (ATCC 90028); Candida albicans, ATCC90028, ATCC 90028, library hits) [µM]	IC50 (S. cerevisiae [2]) [µM]	IC50 (C. albicans) [µM]	iATP (C. albicans cells) [nM]
OC(CN1CCCCCC1)Cn1c2ccccc2c2ccccc21 (stereo not shown) [Compound 1]	18.8 ± 7.3	>200	> 200				
CC(C)CCOCC(O)Cn1c2ccccc2c2ccccc21 (stereo not shown) [Compound 2]	5.5 ± 0.7	>200	50 (≈ 15.6 µg/mL)				
Oc1ccccc1Cn1c2ccccc2c2ccccc21 [Compound 3]	9.7 ± 0.6	100 (≈ 27.3 µg/mL)	50 (≈ 13.7 µg/mL)				
OC(CN1CCCC1)Cn1c2ccc(Cl)cc2c2cc(Cl)ccc21 (stereo not shown) [Compound 4]	17.3 ± 5.5	30 (≈ 10.9 µg/mL)	10 (≈ 3.63 µg/mL)	≥ 30			
C[C@@H](c1ncncc1F)[C@](O)(Cn1cncn1)c1ccc(F)cc1F [Voriconazole, reference compound]					> 75	> 75	37 ± 19
